Earlier results on 1 compound are cited in patent US7018649B2 (Euro-Celtique, S.A., priority 2000, dated 2006).

The subject of series [1] is plasma-protein.
The conditions of series [2]: in vivo.
Test in series [3]: not given
This is another data set of the same source.

Take `CCOC(=O)C1=C(C)NC(C)=C(C(=O)OC)C1c1cccc(Cl)c1Cl` (racemic) [felodipine, 4-(2,3-dichlorophenyl)-1,4-dihydro-2,6-dimethyl-3,5-pyridinedicarboxylate]: under “after administration”, the “time to mean peak concentrations” value was 2.5 to 5 h. Moreover, where the note is “after metabolism”, the “excretion in the feces” value is 10% and the “excretion in the urine” value is given as 70%. For the same compound, where the note is “following administration”, the “onset of antihypertensive activity” value is 2 to 5 h. Also, for the setting “in vivo”, the “plasma concentration at steady state” value is 2 ng/mL. Moreover, the bioavailability result (oral dose, gastrointestinal absorption) is “approximately 20%”. For the same compound, the plasma-protein bound in series [1] is given as 99%. Besides, the “most common adverse side effects” value in series [2] was “peripheral edema and headaches”. In series [3] (dichloromethane and ethanol), the “solubility in dichloromethane and ethanol” value was “freely soluble”. Moreover, the solubility in water result in series [3] (water) is “not soluble”.
